From US20250313547A1, “CEREBLON LIGANDS AND BIFUNCTIONAL COMPOUNDS COMPRISING THE SAME” (Arvinas Operations, Inc., priority 2017, published 2025) come the findings set out here.

This experiment relates to androgen receptor (AR). Kind of experiment: AR ELISA assay (androgen receptor degradation). Type of experiment: cell-based. The note with it: LNCaP and/or VCaP cells, 5 hours drug treatment; for AR Dmax: % degraded. The procedure: 5. AR ELISA Assay Protocol
Compounds were evaluated in this assay in LNCaP and/or VCaP cells utilizing similar protocols. The protocols used with VCaP cells are described below. The androgen receptor ELISA assay was performed using PathScan AR Sandwich ELISA (Cell Signaling Catalog #12850) according to the following assay steps:
VCaP cells were seeded at 40,000 cells/well at a volume of 100 µL/well in VCaP assay medium [Phenol red free RPMI (Gibco Cat #11835-030); 5% Charcoal Stripped (Dextran treated) FBS (Omega Scientific, Cat #FB-04); 1% penstrep (Life Technologies, Gibco Cat #: 10378-016)] in Corning 3904 plates. The cells were incubated for a minimum of 3 days. Cells were dosed with PROTACs diluted in 0.01% DMSO and the drug treatment was allowed for 5 hours.
AR ELISA (Cell Signaling) was performed as follows. 1×Cell Signaling Cell lysis buffer was made (Catalogue #9803; comes with the kit). Media from the treated wells is aspirated, and 100 μL 1×cell lysis buffer/well is added. The cells were placed on a shaker for 10 minutes at 4° C. Twenty microliters of lysate was transferred to 100 μl of Diluent in ELISA plate ([…]-0.075 μg/ml). The lysate-diluent mixture was shaken for 30 minutes at 37° C. Allow mouse AR antibody, anti-mouse antibody, TMB, and STOP solution to come to room temperature. The 1×ELISA buffer included in kit was made and loaded in the reservoir. Media from the plates was discarded, the ELISA plate tapped hard on paper towel, and washed 4×200 μl ELISA wash buffer using a plate washer.
One-hundred (100) μL/well of mouse AR detection Ab was added; the plates were covered and shaken at 37° C. for 1 hour; media was discarded from the plates, the plates were tapped on a paper towel, washed 4× with 200 μL ELISA wash buffer with a plate washer.
One-hundred (100) μL/well of anti-mouse—HRP conjugated Ab (comes with the kit) was added; the plates were covered and shaken at 37° C. for 30 minutes; the TMB reagent was allowed to come to room temperature; the media was discard from the plate, the plates were tapped on paper towel, washed 4× with 200 μL of ELISA wash buffer; the plates were tapped the plates on paper towel. One-hundred (100) μL of TMB was added and the plates shaken for 2 minutes—while watching for color development. One-hundred (100) μL Stop solution was added when light blue color developed. Plates were shaken and read at 450 nm.
For orientation: ELISA stands for enzyme-linked immunosorbent assay.

The term DC50 denotes the midpoint of the concentration-degradation curve. Regarding `C=C1CN(C2CCC(=O)NC2=O)C(=O)c2ccc(N3CCN(CC4CCN(c5ccc(C(=O)N[C@H]6C(C)(C)[C@H](Oc7ccc(C#N)c(Cl)c7)C6(C)C)cc5)CC4)CC3)cc21` (stereo partly drawn) [PROTAC-81, N-((1r,3r)-3-(3-chloro-4-cyanophenoxy)-2,2,4,4-tetramethylcyclobutyl)-4-(4-((4-(2-(2,6-dioxopiperidin-3-yl)-4-methylene-1-oxo-1,2,3,4-tetrahydroisoquinolin-6-yl)piperazin-1-yl)methyl)piperidin-1-yl)benzamide], the “AR Dmax” value is listed as “A (A > 75)” and the DC50 is less than 1 nM.

Take `CC1(C)[C@H](NC(=O)c2ccc(N3CCN(CCCCCOc4ccc5c(c4)C(=O)N(c4ccc(C#N)[nH]c4=O)C5=O)CC3)nc2)C(C)(C)[C@H]1Oc1ccc(C#N)c(Cl)c1` [PROTAC-42, N-((1r,3r)-3-(3-chloro-4-cyanophenoxy)-2,2,4,4-tetramethylcyclobutyl)-6-(4-(5-((2-(6-cyano-2-oxo-1,2-dihydropyridin-3-yl)-1,3-dioxoisoindolin-5-yl)oxy)pentyl)piperazin-1-yl)nicotinamide]: the “AR Dmax” value was “C (C <= 50)” and the DC50 is 10 to 100 nM.

With `CC1(C)[C@H](NC(=O)c2ccc(/C=C/CN3CCC4(CC3)CC(=O)N(C3CCC(=O)NC3=O)C4=O)cc2)C(C)(C)[C@H]1Oc1ccc(C#N)c(Cl)c1` (mixture of isomers) [PROTAC-77, rac-N-((1r,3r)-3-(3-chloro-4-cyanophenoxy)-2,2,4,4-tetramethylcyclobutyl)-4-((E)-3-(2-(2,6-dioxopiperidin-3-yl)-1,3-dioxo-2,8-diazaspiro[4.5]decan-8-yl)prop-1-en-1-yl)benzamide], the “AR Dmax” value is given as “C (C <= 50)” and the DC50 was not below 100 nM.

Consider `Cn1c(-c2ccc(OCCCCCN3CCN(c4ccc(C(=O)N[C@H]5C(C)(C)[C@H](Oc6ccc(C#N)c(Cl)c6)C5(C)C)cc4)CC3)cc2)nn(C2CCC(=O)NC2=O)c1=O` (mixture of isomers) [PROTAC-69, rac-N-((1r,3r)-3-(3-chloro-4-cyanophenoxy)-2,2,4,4-tetramethylcyclobutyl)-4-(4-(5-(4-(1-(2,6-dioxopiperidin-3-yl)-4-methyl-5-oxo-4,5-dihydro-1H-1,2,4-triazol-3-yl)phenoxy)pentyl)piperazin-1-yl)benzamide], for which the “AR Dmax” value was “B (50 < B <= 75)” and the half-maximal degradation concentration (DC50) was less than 1 nM.

Consider `CC1(C)[C@H](NC(=O)c2ccc(N3CCN(CCCCCOc4ccc(C(=O)NC5CCC(=O)NC5=O)nc4)CC3)nc2)C(C)(C)[C@H]1Oc1ccc(C#N)c(Cl)c1` (mixture of isomers) [PROTAC-27, rac-5-((5-(4-(5-(((1r,3r)-3-(3-chloro-4-cyanophenoxy)-2,2,4,4-tetramethylcyclobutyl)carbamoyl)pyridin-2-yl)piperazin-1-yl)pentyl)oxy)-N-(2,6-dioxopiperidin-3-yl)picolinamide], for which the “AR Dmax” value is listed as “B (50 < B <= 75)” and the DC50 lay within 1 to 10 nM.

For the compound `N#Cc1ccc(O[C@H]2CC[C@H](NC(=O)c3ccc(N4CCC(CN5CCN(c6cc(C(=O)NC7CCC(=O)NC7=O)c(C(=O)O)cc6F)CC5)CC4)nn3)CC2)cc1Cl` (stereo partly drawn) [PROTAC-58, 4-(4-((1-(6-(((1r,4r)-4-(3-chloro-4-cyanophenoxy)cyclohexyl)carbamoyl)pyridazin-3-yl)piperidin-4-yl)methyl)piperazin-1-yl)-2-((2,6-dioxopiperidin-3-yl)carbamoyl)-5-fluorobenzoic acid], the “AR Dmax” value was “B (50 < B <= 75)” and the DC50 fell in the range of 10 to 100 nM.

Regarding `CC1(C)[C@H](NC(=O)c2ccc(N3CCC(CN4CCN(c5ccc6c(=O)n(C7CCC(=O)NC7=O)ccc6c5)CC4)CC3)cc2)C(C)(C)[C@H]1Oc1ccc(C#N)c(Cl)c1` (stereo partly drawn) [PROTAC-82, N-((1r,3r)-3-(3-chloro-4-cyanophenoxy)-2,2,4,4-tetramethylcyclobutyl)-4-(4-((4-(2-(2,6-dioxopiperidin-3-yl)-1-oxo-1,2-dihydroisoquinolin-6-yl)piperazin-1-yl)methyl)piperidin-1-yl)benzamide], the “AR Dmax” value is “A (A > 75)” and the DC50 is less than 1 nM.

Consider `Cc1nc2c(OCCCCCN3CCN(c4ccc(C(=O)N[C@H]5C(C)(C)[C@H](Oc6ccc(C#N)c(Cl)c6)C5(C)C)cn4)CC3)cccc2c(=O)n1C1CCC(=O)NC1=O` (stereo partly drawn) [PROTAC-30, N-((1r,3r)-3-(3-chloro-4-cyanophenoxy)-2,2,4,4-tetramethylcyclobutyl)-6-(4-(5-((3-(2,6-dioxopiperidin-3-yl)-2-methyl-4-oxo-3,4-dihydroquinazolin-8-yl)oxy)pentyl)piperazin-1-yl)nicotinamide], for which the “AR Dmax” value is “C (C <= 50)” and the DC50 was not below 100 nM.

Turning to `Cn1c(-c2cccc(N3CCN(CC4CCN(c5ccc(C(=O)N[C@H]6C(C)(C)[C@H](Oc7ccc(C#N)c(Cl)c7)C6(C)C)cc5)CC4)CC3)c2)nn(C2CCC(=O)NC2=O)c1=O` (mixture of isomers) [PROTAC-68, rac-N-((1r,3r)-3-(3-chloro-4-cyanophenoxy)-2,2,4,4-tetramethylcyclobutyl)-4-(4-((4-(3-(1-(2,6-dioxopiperidin-3-yl)-4-methyl-5-oxo-4,5-dihydro-1H-1,2,4-triazol-3-yl)phenyl)piperazin-1-yl)methyl)piperidin-1-yl)benzamide], the “AR Dmax” value is “A (A > 75)” and the DC50 is less than 1 nM.

As for `CC1(C)[C@H](NC(=O)c2ccc(N3CCC(CN4CCN(c5ccc6c(c5)C(=O)N(c5ccc[nH]c5=O)C6=O)CC4)CC3)cc2)C(C)(C)[C@H]1Oc1ccc(C#N)c(Cl)c1` [PROTAC-44, rac-N-((1r,3r)-3-(3-chloro-4-cyanophenoxy)-2,2,4,4-tetramethylcyclobutyl)-4-(4-((4-(1,3-dioxo-2-(2-oxo-1,2-dihydropyridin-3-yl)isoindolin-5-yl)piperazin-1-yl)methyl)piperidin-1-yl)benzamide], the “AR Dmax” value is listed as “C (C <= 50)” and the DC50 was not below 100 nM.

In the case of `Cn1c(-c2cccc(OCCCCCN3CCN(c4ccc(C(=O)N[C@H]5C(C)(C)[C@H](Oc6ccc(C#N)c(Cl)c6)C5(C)C)cc4)CC3)c2)nn(C2CCC(=O)NC2=O)c1=O` (mixture of isomers) [PROTAC-67, rac-N-((1r,3r)-3-(3-chloro-4-cyanophenoxy)-2,2,4,4-tetramethylcyclobutyl)-4-(4-(5-(3-(1-(2,6-dioxopiperidin-3-yl)-4-methyl-5-oxo-4,5-dihydro-1H-1,2,4-triazol-3-yl)phenoxy)pentyl)piperazin-1-yl)benzamide], the “AR Dmax” value is reported as “C (C <= 50)” and the 50% degradation concentration (DC50) lay within 1 to 10 nM.

Regarding `CC1(C)[C@H](NC(=O)c2ccc(N3CCN(CCCCCOc4ccc5ncc(-n6ccc(=O)[nH]c6=O)cc5c4)CC3)nc2)C(C)(C)[C@H]1Oc1ccc(C#N)c(Cl)c1` [PROTAC-47, N-((1r,3r)-3-(3-chloro-4-cyanophenoxy)-2,2,4,4-tetramethylcyclobutyl)-6-(4-(5-((3-(2,4-dioxo-3,4-dihydropyrimidin-1(2H)-yl)quinolin-6-yl)oxy)pentyl)piperazin-1-yl)nicotinamide], the “AR Dmax” value is “C (C <= 50)” and the DC50 was 1 to 10 nM.

On to `CC1(C)[C@H](NC(=O)c2ccc(N3CCN(CCCOc4cnn(C5CCC(=O)NC5=O)c(=O)c4)CC3)nc2)C(C)(C)[C@H]1Oc1ccc(C#N)c(Cl)c1` (mixture of isomers) [PROTAC-60, rac-N-((1r,3r)-3-(3-chloro-4-cyanophenoxy)-2,2,4,4-tetramethylcyclobutyl)-6-(4-(3-((1-(2,6-dioxopiperidin-3-yl)-6-oxo-1,6-dihydropyridazin-4-yl)oxy)propyl)piperazin-1-yl)nicotinamide], for which the “AR Dmax” value is “C (C <= 50)” and the DC50 was not below 100 nM.

In the case of `CC1(C)[C@H](NC(=O)c2ccc(N3CCC(CCN4CCN(c5ccc(C(=O)NC6CCC(=O)NC6=O)nc5)CC4)CC3)nc2)C(C)(C)[C@H]1Oc1ccc(C#N)c(Cl)c1` (mixture of isomers) [PROTAC-52, rac-5-(4-(2-(1-(5-(((1r,3r)-3-(3-chloro-4-cyanophenoxy)-2,2,4,4-tetramethylcyclobutyl)carbamoyl)pyridin-2-yl)piperidin-4-yl)ethyl)piperazin-1-yl)-N-(2,6-dioxopiperidin-3-yl)picolinamide], the “AR Dmax” value is recorded as “B (50 < B <= 75)” and the half-maximal degradation concentration (DC50) was less than 1 nM.

Turning to `CC1(C)[C@H](NC(=O)c2ccc(N3CCN(CCCOc4ccc(C(=O)NC5CCC(=O)NC5=O)nc4)CC3)nc2)C(C)(C)[C@H]1Oc1ccc(C#N)c(Cl)c1` (stereo partly drawn) [PROTAC-50, 5-(3-(4-(5-(((1r,3r)-3-(3-chloro-4-cyanophenoxy)-2,2,4,4-tetramethylcyclobutyl)carbamoyl)pyridin-2-yl)piperazin-1-yl)propoxy)-N-(2,6-dioxopiperidin-3-yl)picolinamide], the “AR Dmax” value was “B (50 < B <= 75)” and the DC50 is less than 1 nM.
